Measured values: patent US12516046B2, “2-oxo-oxazolidine-5-carboxamides as NAV1.8 inhibitors” (Merck Sharp & Dohme LLC, priority 2020, dated 2026)

Molecular target: human Nav1.8 (Homo sapiens (Human), UniProt Q9Y5Y9)
Assay: Nav1.8 Qube® Assay (automated 384-well patch-clamp)
Format: cell-based
Conditions: human Nav1.8 channels stably expressed in HEK 293 cells
Text: Qube® Assay Experimental Procedure

Chain of human Nav1.8 (Q9Y5Y9 whole entry): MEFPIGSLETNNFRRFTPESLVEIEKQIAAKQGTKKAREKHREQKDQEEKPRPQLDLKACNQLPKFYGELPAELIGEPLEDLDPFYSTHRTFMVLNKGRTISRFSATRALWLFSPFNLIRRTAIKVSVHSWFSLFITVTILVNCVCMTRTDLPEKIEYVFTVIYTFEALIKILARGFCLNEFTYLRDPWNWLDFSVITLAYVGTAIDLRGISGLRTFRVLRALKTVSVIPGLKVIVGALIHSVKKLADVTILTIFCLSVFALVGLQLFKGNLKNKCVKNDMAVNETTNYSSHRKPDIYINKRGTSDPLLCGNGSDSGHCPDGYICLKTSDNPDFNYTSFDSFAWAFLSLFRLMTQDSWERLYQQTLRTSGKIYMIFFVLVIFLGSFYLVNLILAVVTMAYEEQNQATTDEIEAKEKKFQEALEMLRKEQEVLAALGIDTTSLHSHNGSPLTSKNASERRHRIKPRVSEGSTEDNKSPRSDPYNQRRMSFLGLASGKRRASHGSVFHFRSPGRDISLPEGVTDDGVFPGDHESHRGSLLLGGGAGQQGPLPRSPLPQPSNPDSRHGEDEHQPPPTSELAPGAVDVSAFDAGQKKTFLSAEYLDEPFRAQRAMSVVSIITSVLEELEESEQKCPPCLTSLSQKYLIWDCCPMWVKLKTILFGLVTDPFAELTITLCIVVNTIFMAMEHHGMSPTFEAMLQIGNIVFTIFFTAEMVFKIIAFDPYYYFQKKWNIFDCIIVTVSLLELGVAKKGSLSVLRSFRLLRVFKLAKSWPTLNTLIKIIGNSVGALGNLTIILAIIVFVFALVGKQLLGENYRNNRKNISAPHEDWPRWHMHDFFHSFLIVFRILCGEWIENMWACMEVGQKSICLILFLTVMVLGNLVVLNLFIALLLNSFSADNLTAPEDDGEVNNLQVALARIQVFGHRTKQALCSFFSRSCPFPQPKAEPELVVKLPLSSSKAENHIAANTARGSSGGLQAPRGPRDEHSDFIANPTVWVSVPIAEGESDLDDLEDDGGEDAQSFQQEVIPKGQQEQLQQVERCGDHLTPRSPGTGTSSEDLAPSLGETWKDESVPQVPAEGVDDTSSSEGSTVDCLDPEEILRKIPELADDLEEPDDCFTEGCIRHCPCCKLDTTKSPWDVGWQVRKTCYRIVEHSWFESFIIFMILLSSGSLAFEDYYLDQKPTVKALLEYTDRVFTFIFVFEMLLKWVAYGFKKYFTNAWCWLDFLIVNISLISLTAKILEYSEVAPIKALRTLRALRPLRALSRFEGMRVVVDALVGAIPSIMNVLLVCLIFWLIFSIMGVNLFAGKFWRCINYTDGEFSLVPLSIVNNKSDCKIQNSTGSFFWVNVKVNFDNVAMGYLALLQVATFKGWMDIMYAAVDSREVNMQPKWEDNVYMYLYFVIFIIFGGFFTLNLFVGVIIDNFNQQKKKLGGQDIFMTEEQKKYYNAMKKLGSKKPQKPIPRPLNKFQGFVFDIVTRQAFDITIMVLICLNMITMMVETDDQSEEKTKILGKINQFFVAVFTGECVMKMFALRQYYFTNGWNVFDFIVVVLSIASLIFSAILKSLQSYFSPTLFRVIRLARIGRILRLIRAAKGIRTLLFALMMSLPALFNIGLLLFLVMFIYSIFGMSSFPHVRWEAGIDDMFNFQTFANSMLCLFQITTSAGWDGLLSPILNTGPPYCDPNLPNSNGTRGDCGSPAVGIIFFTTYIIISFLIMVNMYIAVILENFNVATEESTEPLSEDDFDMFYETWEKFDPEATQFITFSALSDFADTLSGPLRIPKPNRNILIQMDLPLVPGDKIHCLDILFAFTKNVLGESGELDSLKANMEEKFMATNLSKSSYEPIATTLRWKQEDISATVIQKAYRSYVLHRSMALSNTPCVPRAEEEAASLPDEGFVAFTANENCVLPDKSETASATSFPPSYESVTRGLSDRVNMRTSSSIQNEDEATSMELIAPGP

Structure (SMILES)	IC50
O=C1NC[C@@H](C(=O)NC(c2ccc(F)c(Cl)c2)c2cc(C(F)(F)F)[nH]n2)O1 (single isomer, unassigned) [Example 5B, (S)—N—((R or S)-(3-chloro-4-fluorophenyl)(5-(trifluoromethyl)-1H-pyrazol-3-yl)methyl)-2-oxooxazolidine-5-carboxamide]	265 nM
CC(NC(=O)[C@@H]1CNC(=O)O1)(c1ccc(Cl)cc1)c1ccc(Cl)cc1 [Example 41, (S)-N-(1,1-bis(4-chlorophenyl)ethyl)-2-oxooxazolidine-5-carboxamide]	378 nM
COc1cc(Cl)ccc1C(NC(=O)[C@@H]1CNC(=O)O1)c1ccc(F)cc1 (single isomer, unassigned) [Example 55B, (S)—N—((R or S)-(4-chloro-2-methoxyphenyl)(4-fluorophenyl)methyl)-2-oxooxazolidine-5-carboxamide]	4.7 nM
O=C1NC[C@@H](C(=O)NC(c2ccc(Cl)cc2)c2ccc(Cl)c(C(F)(F)F)n2)O1 (single isomer, unassigned) [Example 2B, (S)—N—((R or S)-(5-chloro-6-(trifluoromethyl)pyridin-2-yl)(4-chlorophenyl)methyl)-2-oxooxazolidine-5-carboxamide]	30 nM
O=C1NC[C@@H](C(=O)NC(CCc2ccc(Cl)cc2)c2ccc(F)c(Cl)c2F)O1 (single isomer, unassigned) [Example 65A, (S)—N—((R or S)-1-(3-chloro-2,4-difluorophenyl)-3-(4-chlorophenyl)propyl)-2-oxooxazolidine-5-carboxamide]	94 nM
Cc1cc(C(NC(=O)[C@@H]2CNC(=O)O2)c2ccc(Cl)cc2)ccc1Cl (single isomer, unassigned) [Example 46A, (S)-N-((R or S)-(4-chloro-3-methylphenyl)(4-chlorophenyl)methyl)-2-oxooxazolidine-5-carboxamide]	0.6 nM
O=C1NC[C@@H](C(=O)NC(c2ccc(Cl)cc2)c2ccc(F)c(Cl)c2)O1 (single isomer, unassigned) [Example 19A, (S)—N—((R or S)-(3-chloro-4-fluorophenyl)(4-chlorophenyl)methyl)-2-oxooxazolidine-5-carboxamide]	0.9 nM
O=C1NC[C@@H](C(=O)NC(c2ccc(F)c(Cl)c2F)[C@@H]2C[C@@H]3[C@H](C2)C3(F)F)O1 (single isomer, unassigned) [Example 74B, (S)-N-((R or S)-(3-chloro-2,4-difluorophenyl) ((trans)-6,6-difluorobicyclo[3.1.0]hexan-3-yl)methyl)-2-oxooxazolidine-5-carboxamide]	389 nM
O=C1NC[C@@H](C(=O)NC(c2ccc(Cl)cc2)c2cccs2)O1 (stereo partly drawn) [Example 24, (5S)-N-((4-chlorophenyl)(thio-phen-2-yl)methyl)-2-oxooxazolidine-5-carboxamide]	144 nM
O=C1NC[C@@H](C(=O)NC(c2ccc(OC(F)F)cc2)c2ccc(F)c(Cl)c2)O1 (single isomer, unassigned) [Example 48B, (S)-N-((R or S)-(3-chloro-4-fluorophenyl)(4-(difluoromethoxy)phenyl)methyl)-2-oxooxazolidine-5-carboxamide]	6.8 nM
COc1ncccc1C(NC(=O)[C@@H]1CNC(=O)O1)c1ccc(F)c(Cl)c1 (single isomer, unassigned) [Example 58A, (S)-N-((R or S)-(3-chloro-4-fluorophenyl)(2-methoxypyridin-3-yl)methyl)-2-oxooxazolidine-5-carboxamide]	12 nM
O=C1NC[C@@H](C(=O)NC(COc2ccc(F)c(Cl)c2)c2ccc(F)c(Cl)c2)O1 (single isomer, unassigned) [Example 8A, (S)—N—((R or S)-2-(3-chloro-4-fluorophenoxy)-1-(3-chloro-4-fluorophenyl)ethyl)-2-oxooxazolidine-5-carboxamide]	40 nM
O=C1NC[C@@H](C(=O)NC(c2ccc(OC(F)(F)F)c(Cl)c2)c2ccnc(C(F)(F)F)n2)O1 (single isomer, unassigned) [Example 52B, (S)-N-((R or S)-(3-chloro-4-(trifluoromethoxy)phenyl)(2-(trifluoro-methyl)pyrimidin-4-yl)methyl)-2-oxooxazolidine-5-carboxamide]	13 nM
O=C1NC[C@@H](C(=O)NC(c2ccc(Cl)cc2)C23CCC(CC2)C3)O1 (single isomer, unassigned) [Example 3A, (S)-N-((R or S)-bicyclo[2.2.1]heptan-1-yl(4-chlorophenyl)methyl)-2-oxooxazolidine-5-carboxamide]	133 nM
O=C1NC[C@@H](C(=O)NC(c2ccc(Cl)cc2)C23CC(C(F)(F)F)(C2)C3)O1 (single isomer, unassigned) [Example 4B, (S)-N-((R or S)-(4-chlorophenyl)(3-(trifluoromethyl)bicyclo[1.1.1]pentan-1-yl)methyl)-2-oxooxazolidine-5-carboxamide]	312 nM
O=C1NC[C@@H](C(=O)NC(c2ccc(F)c(Cl)c2)c2cnn(CC(F)(F)F)c2)O1 (single isomer, unassigned) [Example 59A, (S)-N-((R or S)-(3-chloro-4-fluorophenyl)(1-(2,2,2-trifluoroethyl)-1H-pyrazol-4-yl)methyl)-2-oxooxazolidine-5-carboxamide]	171 nM

Structure (SMILES)	IC50
COc1ccc(C(NC(=O)[C@@H]2CNC(=O)O2)c2ccc(Cl)cc2)cn1 (single isomer, unassigned) [Example 22A, (S)-N-((R or S)-(4-chlorophenyl)(6-methoxypyridin-3-yl)methyl)-2-oxooxazolidine-5-carboxamide]	130 nM
O=C1NC[C@@H](C(=O)NC(c2ccc(F)c(Cl)c2F)[C@@H]2CC[C@@H](C(F)(F)F)CO2)O1 (single isomer, unassigned) [Example 9B]	9.5 nM
O=C1NC[C@@H](C(=O)NC(c2ccccc2)C2C3CC4CC(C3)CC2C4)O1 (stereo partly drawn) [Example 21, (5S)-N-((adamantan-2-yl)(phenyl)methyl)-2-oxooxazolidine-5-carboxamide]	293 nM
O=C1NC[C@@H](C(=O)NC(c2ccc(Cl)cc2)c2n[nH]c3ccccc23)O1 (single isomer, unassigned) [Example 15B, (S)-N-((R or S)-(4-chlorophenyl)(1H-indazol-3-yl)methyl)-2-oxooxazolidine-5-carboxamide]	58 nM
O=C1NC[C@@H](C(=O)NC(c2ccc(Cl)cc2)C2CCN(CC(F)(F)F)CC2)O1 (single isomer, unassigned) [Example 42A, (S)-N-((R or S)-(4-chlorophenyl)(1-(2,2,2-trifluoroethyl)piperidin-4-yl)methyl)-2-oxooxazolidine-5-carboxamide]	936 nM
O=C1NC[C@@H](C(=O)NC(c2ccc(Cl)cc2)C2CCC(F)(F)C2)O1 (single isomer, unassigned) [Example 57C, (S)-N-((R or S)-(4-chlorophenyl)((R or S)-3,3-difluorocyclopentyl)methyl)-2-oxooxazolidine-5-carboxamide]	903 nM
O=C1NC[C@@H](C(=O)NC(c2ccc(Cl)cc2)c2ccnc(C(F)(F)F)c2)O1 (some centres unmarked) [Example 34]	94 nM
O=C1NC[C@@H](C(=O)NC(c2ccc(Cl)cc2)c2cccc(F)c2F)O1 (single isomer, unassigned) [Example 29A, (S)-N-((R or S)-(4-chlorophenyl)(2,3-difluorophenyl)methyl)-2-oxooxazolidine-5-carboxamide]	14 nM
Cn1nc(C(F)(F)F)cc1C(NC(=O)[C@@H]1CNC(=O)O1)c1ccc(F)c(Cl)c1 (single isomer, unassigned) [Example 61B, (S)-N-((R or S)-(3-chloro-4-fluorophenyl)(1-methyl-3-(trifluoromethyl)-1H-pyrazol-5-yl)methyl)-2-oxooxazolidine-5-carboxamide]	231 nM
O=C1NC[C@@H](C(=O)NC(c2ccc(Cl)cc2)c2nc(C(F)(F)F)cs2)O1 (single isomer, unassigned) [Example 12A, (S)-N-((R or S)-(4-chlorophenyl)(4-(trifluoromethyl)thiazol-2-yl)methyl)-2-oxooxazolidine-5-carboxamide]	16 nM
O=C1NC[C@@H](C(=O)NC(c2ccc(Cl)cc2)c2ccc(Cl)c(C(F)(F)F)c2)O1 (single isomer, unassigned) [Example 35A, (S)-N-((R or S)-(4-chloro-3-(trifluoromethyl)phenyl)(4-chlorophenyl)methyl)-2-oxooxazolidine-5-carboxamide]	0.4 nM
O=C1NC[C@@H](C(=O)NC(c2ccc(Cl)cc2)C23C4C5C6C4C2C6C53)O1 (single isomer, unassigned) [Example 56B, (S)—N—((R or S)-(4-chlorophenyl)(cuban-1-yl)methyl)-2-oxooxazolidine-5-carboxamide]	289 nM
CC1NC(=O)OC1C(=O)NC(c1ccc(Cl)cc1)c1ccc(Cl)cc1 (single isomer, unassigned) [Example 6A, (cis or trans)-N-(bis(4-chlorophenyl)methyl)-4-methyl-2-oxooxazolidine-5-carboxamide]	442 nM
O=C1NC[C@@H](C(=O)NC(CCc2ccc(Cl)cc2)c2ccc(F)c(Cl)c2F)O1 (single isomer, unassigned) [Example 65B, (S)—N—((R or S)-1-(3-chloro-2,4-difluorophenyl)-3-(4-chlorophenyl)propyl)-2-oxooxazolidine-5-carboxamide]	11 nM
O=C1NC[C@@H](C(=O)NC(c2ccc(F)c(Cl)c2)c2cc(C(F)(F)F)[nH]n2)O1 (single isomer, unassigned) [Example 5A, (S)—N—((R or S)-(3-chloro-4-fluorophenyl)(5-(trifluoromethyl)-1H-pyrazol-3-yl)methyl)-2-oxooxazolidine-5-carboxamide]	4.8 nM
O=C1NC[C@@H](C(=O)NC(c2ccc(OC(F)(F)F)c(Cl)c2)c2coc(C(F)(F)F)n2)O1 (single isomer, unassigned) [Example 51B, (S)-N-((R or S)-(3-chloro-4-(trifluoro-methoxy)phenyl)(2-(trifluoromethyl)oxazol-4-yl)methyl)-2-oxooxazolidine-5-carboxamide]	3.7 nM
